Activity calls are given as the source filed them. No cut-off for these calls is given here.
What was measured:
Cell membrane [1] = assay: Disruption of outer membrane integrity in Pseudomonas aeruginosa ATCC 27853 assessed as increase in fluorescence intensity at 4 times of MIC measured for 12 mins by NPN uptake assay; assay type: subcellular
Acinetobacter baumannii = assay: Antimicrobial activity against Acinetobacter baumannii ATCC 19606 assessed as inhibition of visible bacterial growth incubated for 18 hrs by broth microdilution method; assay type: functional
Staphylococcus aureus [2] = assay: Antibacterial activity against methicillin-resistant Staphylococcus aureus ATCC 33591 infected in male Balb/c mouse model of full thickness skin wound assessed as reduction in bacteria in skin wound at 1 mg/ml pre-infected with bacteria for 1 hrs followed by compound administration at 1,24,48 and 72 hrs post infection and measured after 10 days by photographic analysis; assay type: functional, organism-based; conditions: time 10.0 day
Staphylococcus aureus [3] = assay: Antimicrobial activity against methicillin-drug resistant Staphylococcus aureus clinical isolate 48 assessed as concentration required to eliminate 90% bacteria incubated for 18 hrs by broth-microdilution method; assay type: functional
Pseudomonas aeruginosa [4] = assay: Induction of morphological changes in Pseudomonas aeruginosa ATCC 27853 assessed as content leakage at 2 times of MIC incubated for 30 to 120 mins by SEM analysis; assay type: functional, organism-based; conditions: time 30-120 min
Cell membrane [5] = assay: Disruption of membrane integrity in Staphylococcus aureus ATCC 25923 at 2 times of MIC incubated for 30 to 120 mins by SEM analysis; assay type: subcellular; conditions: time 30-120 min
DNA = assay: Binding affinity to Staphylococcus aureus ATCC 25923 DNA at 2 times of MIC measured after 30 mins by agarose gel electrophoresis; assay type: nucleic-acid assay
Pseudomonas aeruginosa [6] = assay: Antibiofilm activity in Pseudomonas aeruginosa ATCC 27853 assessed as inhibition of biofilm formation at 1/2 times of MIC incubated for 24 hrs by crystal violet staining based analysis; assay type: functional, organism-based
Pseudomonas aeruginosa [7] = assay: Induction of morphological changes in Pseudomonas aeruginosa ATCC 27853 assessed as blister formation at 2 times of MIC incubated for 30 to 120 mins by SEM analysis; assay type: functional, organism-based; conditions: time 30-120 min
Staphylococcus aureus [8] = assay: Antibacterial activity against Staphylococcus aureus ATCC 25923 incubated for 18 hrs in presence of ZnCl2 by Mueller-Hinton broth based assay; assay type: functional, organism-based
Staphylococcus aureus [9] = assay: Antibacterial activity against methicillin-resistant Staphylococcus aureus ATCC 33591 infected in male Balb/c mouse model of full thickness skin wound assessed as reduction in bacterial load in skin at 1 mg/ml pre-infected with bacteria for 1 hrs followed by compound administration at 1,12 and 36 hrs post infection and measured 60 hrs post infection by agar plate method; assay type: functional, organism-based; conditions: time 59.0 hrs
Klebsiella pneumoniae [10] = assay: Antibacterial activity against Klebsiella pneumoniae ATCC 700603 infected in male Balb/c mouse model of pneumonia assessed as increase in alveoli expansion in lung at 2.5 mg/kg, ip administered at 4 and 12 hrs post-infected and measured after 24 hrs by H and E staining based analysis; assay type: functional, organism-based; conditions: time 20.0 hrs
[11] = Hemolytic activity in mouse red blood cells assessed as hemolysis at 256 uM incubated for 1 hrs by absorbance based assay relative to control; assay type: toxicity, cell-based, Erythrocyte; conditions: read-out: Activity
Staphylococcus aureus [12] = assay: Antibacterial activity against Staphylococcus aureus ATCC 25923 incubated for 18 hrs in presence of FeCl3 by Mueller-Hinton broth based assay; assay type: functional, organism-based
Staphylococcus aureus [13] = assay: Antimicrobial activity against gentamicin-resistant Staphylococcus aureus ATCC 25923 assessed as inhibition of visible bacterial growth incubated for 18 hrs by broth-dilution method; assay type: functional
Staphylococcus aureus [14] = assay: Bactericidal activity against Staphylococcus aureus ATCC 25923 assessed as bacterial eradication at 2 times of MIC measured after 90 mins by time-kill kinetics assay; assay type: functional, organism-based
Staphylococcus aureus [15] = assay: Antimicrobial activity against Staphylococcus aureus ATCC 25923 assessed as inhibition of visible bacterial growth incubated for 18 hrs by broth-dilution method; assay type: functional
Escherichia coli = assay: Antimicrobial activity against multi-drug resistant Escherichia coli clinical isolate 780 assessed as concentration required to eliminate 90% bacteria incubated for 18 hrs by broth-microdilution method; assay type: functional
[16] = Toxicity in male Balb/c mouse assessed as mortality at 80 mg/kg, ip measured after 7 days relative to control; assay type: organism-based; conditions: in vivo, time 7 day
Pseudomonas aeruginosa [17] = assay: Bactericidal activity against Pseudomonas aeruginosa ATCC 27853 assessed as bacterial killing measured upto 360 mins by time-kill kinetics assay; assay type: functional, organism-based
Staphylococcus aureus [18] = assay: Induction of morphological changes in Staphylococcus aureus ATCC 25923 assessed as content leakage at 2 times of MIC incubated for 30 to 120 mins by SEM analysis; assay type: functional, organism-based; conditions: time 30-120 min
Pseudomonas aeruginosa [19] = assay: Antimicrobial activity against multi-drug resistant Pseudomonas aeruginosa clinical isolate 119 assessed as concentration required to eliminate 90% bacteria incubated for 18 hrs by broth-microdilution method; assay type: functional
Pseudomonas aeruginosa [20] = assay: Antibacterial activity against Pseudomonas aeruginosa ATCC 27853 assessed as fold change in MIC incubated for 18 hrs in presence of 5% serum by broth microdilution method; assay type: functional
Pseudomonas aeruginosa [21] = assay: Antimicrobial activity against gentamicin-resistant Pseudomonas aeruginosa ATCC 27853 assessed as inhibition of visible bacterial growth incubated for 18 hrs by broth microdilution method; assay type: functional
Pseudomonas aeruginosa [22] = assay: Bactericidal activity against Pseudomonas aeruginosa ATCC 27853 assessed as bacterial eradication at 4 times of MIC measured within 30 mins by time-kill kinetics assay; assay type: functional, organism-based
Staphylococcus aureus [23] = assay: Antibacterial activity against Staphylococcus aureus ATCC 25923 assessed as fold change in MIC incubated for 18 hrs in presence of NaCl by Mueller-Hinton broth based assay; assay type: functional
Pseudomonas aeruginosa [24] = assay: Resistance fold, ratio of MIC for Pseudomonas aeruginosa ATCC 27853 measured after 20 passages to MIC for Pseudomonas aeruginosa ATCC 27853 measured immediately; assay type: functional
[25] = Toxicity in male Balb/c mouse assessed as lethal dose administered intraperitoneally for 7 days; conditions: in vivo, route ip, time 7 day
Pseudomonas aeruginosa [26] = assay: Antimicrobial activity against multi-drug resistant Pseudomonas aeruginosa clinical isolate 86 assessed as concentration required to eliminate 90% bacteria incubated for 18 hrs by broth-microdilution method; assay type: functional
Klebsiella pneumoniae [27] = assay: Antibacterial activity against Klebsiella pneumoniae ATCC 700603 infected in male Balb/c mouse model of pneumonia assessed as decrease in bacterial load in lung at 2.5 to 10 mg/kg, ip administered at 4 and 12 hrs post-infected and measured after 24 hrs by agar plate method; assay type: functional, organism-based; conditions: dose 2.5-10 mg/kg, time 20.0 hrs

Substance: H-RRWFRRWRRWFR-NH2
- Activity (Cell membrane [1]): Active
- MIC (Acinetobacter baumannii): 8 µM
- Activity (Staphylococcus aureus [2]): Active; Obvious Facilitation Of Wound Healing Not Observed
- EC90 (Staphylococcus aureus [3]): 2780 nM
- Activity (Pseudomonas aeruginosa [4]): Active
- Activity (Cell membrane [5]): Active
- Activity (DNA): Active
- Activity (Pseudomonas aeruginosa [6]): inactive
- Activity (Pseudomonas aeruginosa [7]): Active
- Activity (Staphylococcus aureus [8]): Active
- Activity (Staphylococcus aureus [9]): Active
- Activity (Klebsiella pneumoniae [10]): Active
- hemolysis at 1 h, 256 µM [11]: < 10%
- Activity (Staphylococcus aureus [12]): Active
- MIC (Staphylococcus aureus [13]): 4 µM
- Activity (Staphylococcus aureus [14]): Active
- MIC (Staphylococcus aureus [15]): 2 µM
- EC90 (Escherichia coli): 5080 nM
- mortality at 168 h [16]: 25%
- Activity (Pseudomonas aeruginosa [17]): Dose-dependent-effect
- Activity (Staphylococcus aureus [18]): Active
- EC90 (Pseudomonas aeruginosa [19]): 566 nM
- fold change (FC) (Pseudomonas aeruginosa [20]): 64
- MIC (Pseudomonas aeruginosa [21]): 2 µM
- Activity (Pseudomonas aeruginosa [22]): Active
- fold change (FC) (Staphylococcus aureus [23]): 2
- fold change (FC) (Pseudomonas aeruginosa [24]): <=2
- LD50 at 168 h [25]: 89.9 mg/kg
- EC90 (Pseudomonas aeruginosa [26]): 574 nM
- Activity (Klebsiella pneumoniae [27]): Active

Source: ChEMBL document CHEMBL6153094, “Rationally designed highly amphipathic antimicrobial peptides demonstrating superior bacterial selectivity relative to the corresponding α-helix peptide” (Eur J Med Chem, 2025)
